Measurements taken from article PMC3078936 (PLoS ONE, 2011).

Target: T1, DYNLL1 (Homo sapiens, UniProt P63167)
T1 construct: 6xHis (N); made in house; host or cells: E. coli BL21(DE3)Star
Assay: Isothermal titration calorimetry of peptide/protein binding to DYNLL1
Details: PBS + 3 mM 2-mercaptoethanol pH 7.4, 299 K; for ΔH: ITC binding enthalpy; for -TΔS: ITC entropy term; for Kd: ITC, 15 µM DYNLL1 in the cell, A + B to AB model, dimeric peptides reach the dynamic range limit of ITC
Protocol: Binding parameters of the in vitro evolved Ac-[…] and naturally evolved Ac-DKSTQTD consensus peptides were determined by isothermal titration calorimetry (ITC). Synthetic peptides were used and N-terminal acetylation was applied to better mimic a non-terminal peptide motif by avoiding the positively charged N-terminus. In order to elucidate the particular contribution of Val-5 to the binding affinity, several control peptides were produced. The in vitro evolved Val-5 was replaced with a glycine (Gly-5) to assess side chain function. In a further truncated variant the entire amino acid residue was replaced with an acetate group (Ac-5) to assess the function of the amide group at position −5. The same variations of Val-5, Gly-5 or Ac-5 were also introduced in the framework of the naturally evolved consensus peptide. DYNNL1 binding of all six variants was analyzed by ITC. In all measurements the stoichiometry of binding was 1∶1 (2 peptides binding to one homodimer DYNNL1). The binding was enthalpy-driven and was accompanied with unfavorable entropy change. Ac-5 versions of both the natural and the in vitro evolved consensus peptide had binding affinities in the micromolar range. Replacing the acetyl group with Gly-5 led to a tenfold affinity increase with both peptides.
All peptides and DYNLL1 were dialyzed overnight in PBS buffer supplemented with 3 mM 2-mercaptoethanol (pH 7.4). A typical binding experiment involved 15 µM DYNLL1 in the cell and 30–40 injections varying between of 3–5 µl peptide solution. For each experiment the thermodynamic parameters were determined at 299 K. We used a VP-ITC instrument from Microcal and the data were fitted by the software package Origin 5.0 (OriginLab) using the simple A + B to AB binding model. The signal from an initial 2 µl injection was eliminated. The equilibration time between injections was 900 sec.

T1 sequence (P63167 whole entry): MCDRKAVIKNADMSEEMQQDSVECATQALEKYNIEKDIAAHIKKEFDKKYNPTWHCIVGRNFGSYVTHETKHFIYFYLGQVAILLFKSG

Substance	ΔH [kcal/mol]	-TΔS [kcal/mol]	Kd [nM]
dimeric-GSVDKSTQTD [recombinant GCN4 leucine zipper-fused, dimerized Val-5 natural consensus peptide]	-21	<10	< 9
dimeric-GSVSRGTQTE [recombinant GCN4 leucine zipper-fused, dimerized in vitro evolved consensus peptide]	-15.5	<4.21	< 7
dimeric-GSGSRGTQTE [recombinant GCN4 leucine zipper-fused, dimerized Gly-5 in vitro evolved peptide]	-16.6	<4.92	< 3
dimeric-GSGDKSTQTD [recombinant GCN4 leucine zipper-fused, dimerized Gly-5 natural consensus peptide]	-18.2	<7.03	< 7
